Data reported in US11339171B2, “MDM2 inhibitors” (Gan & Lee Pharmaceuticals, priority 2017, dated 2022).

Assays:
MDM2 = target: T1, MDM2 (Homo sapiens, UniProt Q00987); experiment: Inhibition test of MDM2-P53 (GST-MDM2, Biotin-P53, Anti-GST-Tb, SA-XL665); type: binding; details: for inhibitory effect on MDM2 compared with positive control compound HDM201: labels are Example numbers, the compounds with S-configuration are meant
T1 construct: made in house
Method in brief: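 Compounds, serially diluted 5-fold (twelve concentrations), were shaken for 90 min at 25° C with a mix of GST-MDM2 (4 nM final), Biotin-P53, anti-GST-Tb and SA-XL665. Buffer: 1×PBS, 0.1% BSA, 5 mM DTT, 1 mM AEBSF; signal read on a microplate reader.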

[1] = tested on: human osteosarcoma cell line SJSA-1; experiment: Inhibition of proliferation of human osteosarcoma cell line SJSA-1 (DAPI staining, In Cell Analyzer); details: for IC50: Homo sapiens, SJSA-1, 72 h, read-out: IC50 (nM), inhibitory activity on proliferation of human osteosarcoma cell line SJSA-1, SJSA-1, incubated 72 h; for inhibitory effect on human osteosarcoma cell line SJSA-1 compared with positive control compound HDM201: labels are Example numbers, the compounds with S-configuration are meant

T1 sequence (Q00987 whole entry): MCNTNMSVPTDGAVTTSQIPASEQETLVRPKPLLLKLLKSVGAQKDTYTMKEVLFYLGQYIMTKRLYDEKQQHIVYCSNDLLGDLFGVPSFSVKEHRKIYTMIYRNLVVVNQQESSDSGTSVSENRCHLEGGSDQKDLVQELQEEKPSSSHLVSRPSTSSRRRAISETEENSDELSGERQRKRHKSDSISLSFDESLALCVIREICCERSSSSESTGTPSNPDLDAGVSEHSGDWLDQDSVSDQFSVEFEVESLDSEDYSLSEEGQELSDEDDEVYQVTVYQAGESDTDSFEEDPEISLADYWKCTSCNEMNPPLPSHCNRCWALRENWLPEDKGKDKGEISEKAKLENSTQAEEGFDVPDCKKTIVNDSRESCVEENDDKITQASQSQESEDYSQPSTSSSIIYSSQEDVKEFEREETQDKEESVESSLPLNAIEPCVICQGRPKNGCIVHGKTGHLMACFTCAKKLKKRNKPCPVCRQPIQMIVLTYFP

COc1cc(N(C)C)c(F)cc1-c1nc2c(n1C(C)C)[C@]1(C(=O)Nc3cc(Cl)ccc31)N(c1cc(Cl)ccc1C)C2=O [Example R-78] was tested, and the IC50 (MDM2) was 222 nM and the IC50 [1] was 1360 nM.
COc1ccc(CC(=O)N(C)C)cc1-c1nc2c(n1C(C)C)[C@@]1(C(=O)Nc3cc(Cl)ccc31)N(c1cc(Cl)ccc1C)C2=O [Example S-70, (S)-2-(3-(6-chloro-5′-(5-chloro-2-methylphenyl)-3′-isopropyl-2,6′-dioxo-5′,6′-dihydro-3′H-spiro[dihydroindole-3,4′-pyrrolo[3,4-d]imidazole]-2′-yl)-4-methoxyphenyl)-N,N-dimethylacetamide] gave an IC50 (MDM2) of 0.94 nM and an IC50 [1] of 73.6 nM.
COc1cc(CN(C)C)ccc1-c1nc2c(n1C(C)C)[C@]1(C(=O)Nc3cc(Cl)ccc31)N(c1cc(Cl)ccc1C)C2=O [Example R-47, (R)-6-chloro-5′-(5-chloro-2-methylphenyl)-2′-(4-((dimethylamino)methyl)-2-methoxyphenyl)-3′-isopropyl-3′H-spiro[dihydroindole-3,4′-pyrrolo[3,4-d]imidazole]-2,6′(5′H)-dione] showed an IC50 (MDM2) of 210 nM and an IC50 [1] of 3850 nM.
CNC(=O)c1ccc(OC)c(-c2nc3c(n2C(C)C)[C@@]2(C(=O)Nc4cc(Cl)ccc42)N(c2cc(Cl)ccc2C)C3=O)c1 [Example S-21, (S)-3-(6-chloro-5′-(5-chloro-2-methylphenyl)-3′-isopropyl-2,6′-dioxo-5′,6′-dihydro-3′H-spiro[dihydroindole-3,4′-pyrrolo[3,4-d]imidazole]-2′-yl)-4-methoxy-N-methylbenzamide] showed an IC50 (MDM2) of 1.34 nM and an IC50 [1] of 62.2 nM.
In the case of COc1ncc(-c2nc3c(n2C(C)C)[C@]2(C(=O)Nc4cc(Cl)ccc42)N(c2ccc(OC)c(Cl)c2)C3=O)c(OC)n1 [Example R-48, (R)-6-chloro-5′-(3-chloro-4-methoxyphenyl)-2′-(2,4-dimethoxypyrimidin-5-yl)-3′-isopropyl-3′H-spiro[dihydroindole-3,4′-pyrrolo[3,4-d]imidazole]-2,6′(5′H)-dione], the IC50 (MDM2) is reported as 196 nM and the IC50 [1] is reported as 3630 nM.
In the case of COc1nc(N(C)C)ncc1-c1nc2c(n1C(C)C)C1(C(=O)Nc3cc(Cl)ccc31)N(c1cc(Cl)ccc1C)C2=O (stereo not drawn) [Example 82, 6-chloro-5′-(5-chloro-2-methylphenyl)-2′-(2-(dimethylamino)-4-methoxypyrimidin-5-yl)-3′-isopropyl-3′H-spiro[dihydroindole-3,4′-pyrrolo[3,4-d]imidazole]-2,6′(5′H)-dione], the “inhibitory effect on MDM2 compared with positive control compound HDM201” value (MDM2) is reported as “better” and the “inhibitory effect on human osteosarcoma cell line SJSA-1 compared with positive control compound HDM201” value [1] is reported as “better”.
With COc1cc(C2CC2)ncc1-c1nc2c(n1C(C)C)C1(C(=O)Nc3cc(Cl)ccc31)N(c1cc(Cl)cnc1C)C2=O (stereo not drawn) [Example 143, 6-chloro-5′-(5-chloro-2-methylpyridin-3-yl)-2′-(6-cyclopropyl-4-methoxypyridin-3-yl)-3′-isopropyl-3′H-spiro[dihydroindole-3,4′-pyrrolo[3,4-d]imidazole]-2,6′(5′H)-dione] the “inhibitory effect on MDM2 compared with positive control compound HDM201” value (MDM2) was “better” and the “inhibitory effect on human osteosarcoma cell line SJSA-1 compared with positive control compound HDM201” value [1] was “better”.
Work on COc1nc(OCCF)ncc1-c1nc2c(n1C(C)C)[C@]1(C(=O)Nc3cc(Cl)ccc31)N(c1cc(Cl)ccc1C)C2=O [Example R-140, (R)-6-chloro-5′-(5-chloro-2-methylphenyl)-2′-(2-(2-fluoroethoxy)-4-methoxypyrimidin-5-yl)-3′-isopropyl-3′H-spiro[dihydroindole-3,4′-pyrrolo[3,4-d]imidazole]-2,6′(5′H)-dione] yielded an IC50 (MDM2) of 147 nM and an IC50 [1] of 863 nM.
In the case of COc1cc(F)ccc1-c1nc2c(n1C(C)C)[C@@]1(C(=O)Nc3cc(Cl)ccc31)N(c1cc(Cl)ccc1C)C2=O [Example S-4, (S)-6-chloro-5′-(5-chloro-2-methylphenyl)-2′-(4-fluoro-2-methoxyphenyl)-3′-isopropyl-3′H-spiro[dihydroindole-3,4′-pyrrolo[3,4-d]imidazole]-2,6′(5′H)-dione], the IC50 (MDM2) is reported as 3.37 nM and the IC50 [1] is reported as 7.92 nM.
